Experimental data taken from patent US8329726B2, “Inhibitors of VEGF receptor and HGF receptor signaling” (MethylGene Inc., priority 2005, dated 2012).
Where two headings read alike, the source gives them in different places.

What was measured:
[1] = biological target: T1, recombinant human c-Met/HGF receptor (Homo sapiens, UniProt P08581); assay: In vitro receptor tyrosine kinase assay (DELFIA), c-Met/HGF receptor; type: biochemical
T1 construct: His tag (pBlueBacHis2A vector); made in house; host or cells: Hi-5 cells (Trichoplusia ni), baculovirus
T1 sequence (P08581 1078-1337): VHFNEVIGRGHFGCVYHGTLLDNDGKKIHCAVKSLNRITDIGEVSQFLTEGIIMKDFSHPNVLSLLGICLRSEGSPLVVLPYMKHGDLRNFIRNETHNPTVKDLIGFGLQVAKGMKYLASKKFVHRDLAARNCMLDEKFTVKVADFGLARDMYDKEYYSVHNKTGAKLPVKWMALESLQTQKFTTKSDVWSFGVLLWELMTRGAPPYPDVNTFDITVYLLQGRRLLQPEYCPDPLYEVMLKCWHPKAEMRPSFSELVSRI
Protocol: Cell pellets were frozen at −80° C. until purification was performed.
The coated plates were washed and stored at 4° C. […] After incubation, the kinase reactions were quenched with EDTA and the plates were washed.

[2] = biological target: T2, VEGF receptor KDR (Homo sapiens, UniProt P35968); assay: In vitro receptor tyrosine kinase assay (DELFIA), VEGF receptor KDR; type: biochemical
T2 construct: made in house; host or cells: Sf9 cells (Spodoptera frugiperda), baculovirus
T2 sequence (P35968 806-1356): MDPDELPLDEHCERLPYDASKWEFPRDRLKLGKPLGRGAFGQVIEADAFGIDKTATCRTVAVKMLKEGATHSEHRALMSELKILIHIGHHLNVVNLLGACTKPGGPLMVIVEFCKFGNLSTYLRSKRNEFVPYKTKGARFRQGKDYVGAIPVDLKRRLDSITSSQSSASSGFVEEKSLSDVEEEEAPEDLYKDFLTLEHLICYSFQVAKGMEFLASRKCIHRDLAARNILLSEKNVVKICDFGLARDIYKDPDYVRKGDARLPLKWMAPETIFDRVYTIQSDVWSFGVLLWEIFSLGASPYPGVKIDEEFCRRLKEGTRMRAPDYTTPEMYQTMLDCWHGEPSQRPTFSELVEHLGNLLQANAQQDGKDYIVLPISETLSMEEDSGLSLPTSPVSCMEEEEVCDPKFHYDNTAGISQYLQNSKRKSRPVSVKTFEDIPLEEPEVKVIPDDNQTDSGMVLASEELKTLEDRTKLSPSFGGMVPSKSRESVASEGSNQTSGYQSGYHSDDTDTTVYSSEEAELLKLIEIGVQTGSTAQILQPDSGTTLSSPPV

[3] = test system: A549; assay: A549 wound healing inhibition (HGF dependent migration); type: cell-based; conditions: Homo sapiens, A549 cells, read-out: A549 WOUND HEALING INHIB IC50
Text: (§1) HGF has well known activity in terms of inducing scattering and migration (wound healing) (Wells et al., Cell Motil Cytoskeleton. 2005 November 62(3):180-94; Miura et al., Urology 2001 December 58(6):1064-9; Nishimura et al., Int J Urol. 1998 May 5(3):276-81; Wang et al., Mol Cancer Ther. 2003 November; 2(11):1085-92; and Christensen et al., Cancer Res. 2003 Nov. 1; 63(21):7345-55).

[4] = test system: DU145; assay: DU145 scattering inhibition (HGF dependent scattering); type: cell-based; conditions: Homo sapiens, DU-145; HGF dependent scattering, DU145 cells; read-out: DU145 SCATTERING INHIB IC50
Text: as §1

[5] = biological target: T3, TPR-MET fusion protein (Homo sapiens, UniProt P08581); assay: C-Met phosphorylation cell-based assay (MNNGHOS cells)
T3 construct: the MET gene on chromosome 7 encoding for its cytoplasmic region catalytic domain; host or cells: MNNGHOS cells; the other entry of the earlier key: TPR (P12270, Nucleoprotein TPR)
T3 sequence (P08581 with tags, fused parts or gaps): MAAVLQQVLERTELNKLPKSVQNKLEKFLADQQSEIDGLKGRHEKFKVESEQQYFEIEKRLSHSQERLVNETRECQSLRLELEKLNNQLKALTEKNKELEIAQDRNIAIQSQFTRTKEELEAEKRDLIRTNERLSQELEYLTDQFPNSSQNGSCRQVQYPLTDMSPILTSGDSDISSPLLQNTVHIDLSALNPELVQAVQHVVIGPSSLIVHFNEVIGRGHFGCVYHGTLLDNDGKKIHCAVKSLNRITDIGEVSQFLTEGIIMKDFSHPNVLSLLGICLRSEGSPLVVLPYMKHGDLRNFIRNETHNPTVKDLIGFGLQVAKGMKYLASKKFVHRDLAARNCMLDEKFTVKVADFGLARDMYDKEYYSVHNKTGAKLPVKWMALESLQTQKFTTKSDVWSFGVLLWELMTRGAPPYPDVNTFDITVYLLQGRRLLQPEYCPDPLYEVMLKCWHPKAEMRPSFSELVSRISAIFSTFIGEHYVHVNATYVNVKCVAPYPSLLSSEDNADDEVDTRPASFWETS
Text: C-Met Phosphorylation Cell-Based Assay
Signal was quantitated by densitometry on Alpha-Imager.

[6] = recombinant c-Met IC, 10 uM ATP, DELFIA, read-out: C-Met (IC50)
[7] = GST-VEGFR2 806-1356, 0.6 uM ATP, DELFIA, read-out: VEGFR (IC50)
[8] = MNNGHOS cells, 3 hours treatment, immunoblot, read-out: Y1230-34-35 TPR-MET phosphorylation (IC50)

Row | IC50 ([1]; read-out: CMET IC50) [µM] | IC50 ([2]; read-out: VEGFR IC50) [µM] | IC50 [3] [µM] | IC50 [4] [µM] | IC50 [1, 6] [µM] | IC50 [2, 7] [µM] | IC50 [5, 8] [µM] | Compound | IC50 [1] [µM] | IC50 [5] [µM]
1 | < 0.05 | 0.05 to 0.25 | < 1 | < 1 |  |  |  | COc1ccccc1NC(=O)CC(=O)Nc1ccc(Oc2ccnc3cc(-c4cccc(CN(C)C)c4)sc23)c(F)c1 |  | 
2 | < 0.05 | < 0.05 | < 1 | < 1 |  |  |  | COc1ccccc1NC(=O)CC(=O)Nc1ccc(Oc2ccnc3cc(-c4cn(C(C)C)cn4)sc23)c(F)c1 |  | 
3 | < 0.05 | < 0.05 | 1 to 5 | < 1 |  |  |  | CC(C)n1cnc(-c2cc3nccc(Oc4ccc(NC(=O)CC(=O)Nc5ccccc5F)cc4F)c3s2)c1 |  | 
4 | < 0.05 | < 0.05 | < 1 | < 1 |  |  |  | CCn1cnc(-c2cc3nccc(Oc4ccc(NC(=O)CC(=O)Nc5ccc(F)cc5)cc4F)c3s2)c1 |  | 
5 | < 0.05 | < 0.05 | 1 to 5 | < 1 |  |  |  | CCCn1cnc(-c2cc3nccc(Oc4ccc(NC(=O)CC(=O)Nc5ccccc5OC)cc4F)c3s2)c1 |  | 
6 | < 0.05 | < 0.05 | < 1 | < 1 |  |  |  | CCn1cnc(-c2cc3nccc(Oc4ccc(NC(=O)C5(C(=O)Nc6ccccc6OC)CC5)cc4F)c3s2)c1 |  | 
7 | < 0.05 | < 0.05 | < 1 | < 1 |  |  |  | CCCn1cnc(-c2cc3nccc(Oc4ccc(NC(=O)CC(=O)Nc5ccccc5F)cc4F)c3s2)c1 |  | 
8 | 0.05 to 0.25 | < 0.05 | 1 to 5 | 1 to 5 |  |  |  | CNCCn1cnc(-c2cc3nccc(Oc4ccc(NC(=O)CC(=O)Nc5ccccc5OC)cc4F)c3s2)c1 |  | 
9 |  |  |  |  | 0.052 | 0.004 | 0.04 | Cn1ccnc1-c1cc2nccc(Oc3ccc(NC(=O)CC(=O)Nc4ccccc4)cc3F)c2s1 [Compound 5b, N^1-(3-Fluoro-4-(2-(1-methyl-1H-imidazol-2-yl)thieno[3,2-b]pyridin-7-yloxy)phenyl)-N^3-phenylmalonamide] |  | 
10 |  |  |  |  | 0.019 | 0.003 | 0.008 | Cn1cnc(-c2cc3nccc(Oc4ccc(NC(=O)CC(=O)Nc5ccccc5)cc4F)c3s2)c1 [Compound 5c, N^1-{3-Fluoro-4-[2-(1-methyl-1H-imidazol-4-yl)thieno[3,2-b]pyridin-7-yloxy]-phenyl}-N^3-phenylmalonamide] |  | 
11 |  |  |  |  | 0.04 | 0.004 | ~2 | O=C(CC(=O)Nc1ccc(Oc2ccnc3cc(C(=O)N4CCCC4)sc23)c(F)c1)Nc1ccccc1 [Compound 5f, N^1-(3-Fluoro-4-(2-(pyrrolidine-1-carbonyl)thieno[3,2-b]pyridin-7-yloxy)phenyl)-N^3-phenylmalonamide] |  | 
12 |  |  |  |  | 0.042 | 0.005 | ~0.2 | COc1ccccc1NC(=O)CC(=O)Nc1ccc(Oc2ccnc3cc(-c4nccn4C)sc23)c(F)c1 [Compound 28a, N^1-(3-Fluoro-4-(2-(1-methyl-1H-imidazol-2-yl)thieno[3,2-b]pyridin-7-yloxy)phenyl)-N^3-(2-methoxyphenyl)malonamide] |  | 
13 |  |  |  |  | 0.04 | 0.013 | 0.59 | COc1ccccc1NC(=O)CC(=O)Nc1ccc(Oc2ccnc3cc(-c4cncn4C)sc23)c(F)c1 [Compound 28c, N^1-(3-Fluoro-4-(2-(1-methyl-1H-imidazol-5-yl)thieno[3,2-h]pyridin-7-yloxy)phenyl)-N^3-(2-methoxyphenyl)malonamide] |  | 
14 |  |  |  |  | 0.031 | 0.005 | 0.028 | Cn1ccnc1-c1cc2nccc(Oc3ccc(NC(=O)CC(=O)Nc4ccccc4F)cc3F)c2s1 [Compound 30a, N^1-(3-Fluoro-4-(2-(1-methyl-1H-imidazol-2-yl)thieno[3,2-b]pyridin-7-yloxy)phenyl)-N^3-(2-fluorophenyl)malonamide] |  | 
15 | 0.25 to 0.5 | < 0.05 | < 1 | 1 to 5 |  |  |  | Cn1ccnc1-c1cc2nccc(Oc3ccc(NC(=O)CC(=O)Nc4cccnc4)cc3F)c2s1 [drawing 282] |  | 
16 | < 0.05 | < 0.05 | < 1 | 1 to 5 |  |  |  | COc1ccccc1NC(=O)CC(=O)Nc1ccc(Oc2ccnc3cc(-c4nccn4C)sc23)c(F)c1 [drawing 284] |  | 
17 | < 0.05 | < 0.05 | < 1 | < 1 |  |  |  | Cn1ccnc1-c1cc2nccc(Oc3ccc(NC(=O)CC(=O)Nc4ccccc4F)cc3F)c2s1 [drawing 285] |  | 
18 | 0.05 to 0.25 | < 0.05 | 1 to 5 | 1 to 5 |  |  |  | CC(C(=O)Nc1ccccc1)C(=O)Nc1ccc(Oc2ccnc3cc(-c4nccn4C)sc23)c(F)c1 (centres unmarked) [drawing 286] |  | 
19 | < 0.05 | < 0.05 | < 1 | < 1 |  |  |  | Cn1cnc(-c2cc3nccc(Oc4ccc(NC(=O)CC(=O)Nc5ccccc5)cc4F)c3s2)c1 [drawing 287] |  | 
20 | < 0.05 | < 0.05 | 1 to 5 | 1 to 5 |  |  |  | COc1ccccc1NC(=O)CC(=O)Nc1ccc(Oc2ccnc3cc(-c4cncn4C)sc23)c(F)c1 [drawing 289] |  | 
21 | 0.05 to 0.25 | < 0.05 | 1 to 5 | 1 to 5 |  |  |  | Cn1cncc1-c1cc2nccc(Oc3ccc(NC(=O)CC(=O)Nc4cccnc4)cc3F)c2s1 [drawing 290] |  | 
22 | < 0.05 | < 0.05 | 1 to 5 | < 1 |  |  |  | CCn1cnc(-c2cc3nccc(Oc4ccc(NC(=O)CC(=O)Nc5ccccc5OC)cc4F)c3s2)c1 [drawing 292] |  | 
23 | < 0.05 | < 0.05 | < 1 | < 1 |  |  |  | CCn1cnc(-c2cc3nccc(Oc4ccc(NC(=O)CC(=O)Nc5ccccc5F)cc4F)c3s2)c1 [drawing 293] |  | 
24 | 0.05 to 0.25 | 0.05 to 0.25 | < 1 | 1 to 5 |  |  |  | CN(C)[C@@H]1CCN(C(=O)c2cc3nccc(Oc4ccc(NC(=O)CC(=O)Nc5ccccc5)cc4F)c3s2)C1 [drawing 294] |  | 
25 | 0.05 to 0.25 | < 0.05 | 1 to 5 | < 1 |  |  |  | COc1ccccc1NC(=O)CC(=O)Nc1ccc(Oc2ccnc3cc(-c4ccc(CN5CCCC5)cc4)sc23)c(F)c1 [drawing 295] |  | 
26 | < 0.05 | 0.05 to 0.25 | 1 to 5 | < 1 |  |  |  | CN(C)Cc1cccc(-c2cc3nccc(Oc4ccc(NC(=O)CC(=O)Nc5ccccc5F)cc4F)c3s2)c1 [drawing 316] |  | 
27 | < 0.05 | < 0.05 | < 1 | < 1 |  |  |  | CCn1cnc(-c2cc3nccc(Oc4ccc(NC(=O)C5(C(=O)Nc6ccccc6)CC5)cc4F)c3s2)c1 [drawing 317] |  | 
28 | < 0.05 | < 0.05 | < 1 | < 1 |  |  |  | CN1CCN(CCN(C)Cc2ccc(-c3cc4nccc(Oc5ccc(NC(=O)CC(=O)Nc6ccccc6)cc5F)c4s3)cc2)CC1 [drawing 351] |  | 

Row | Compound | IC50 ([1]; read-out: CMET IC50) [µM] | IC50 ([2]; read-out: VEGFR IC50) [µM] | IC50 [3] [µM] | IC50 [4] [µM] | IC50 [1, 6] [µM] | IC50 [2, 7] [µM] | IC50 [5, 8] [µM] | IC50 [1] [µM] | IC50 [5] [µM]
29 | Cn1cncc1-c1cc2nccc(Oc3ccc(NC(=O)CC(=O)Nc4ccccc4)cc3F)c2s1 [Compound 5e, N^1-(3-Fluoro-4-(2-(1-methyl-1H-imidazol-5-yl)thieno[3,2-b]pyridin-7-yloxy)phenyl)-N^3-phenylmalonamide] |  |  |  |  |  | 0.005 |  | 0.016 | 0.155
30 | Cn1cncc1-c1cc2nccc(Oc3ccc(NC(=O)CC(=O)Nc4ccccc4)cc3F)c2s1 [drawing 288] | < 0.05 | < 0.05 | < 1 | < 1 |  |  |  |  | 
